Experimental data published in PubChem BioAssay AID179 (DTP/NCI, 2004).
Activity calls are given as the source filed them.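 How the source made its calls: active means compounds giving half or more protection of infected cells from virus-caused growth loss, again on retest; inactive means the rest.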

Test system: CEM cells HIV-1 protection, formazan growth assay
Test: NCI AIDS Antiviral Assay
Settings: for IC50: measured here: growth of uninfected CEM cells
Method in brief: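 Steps: treat uninfected and HIV-1-infected human CEM cells at five drug levels; quantify growth by soluble formazan; retest any compound reaching 50% protection; classify actives from the retest.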

| SMILES | outcome | EC50 [µM] | IC50 [µM] |
| --- | --- | --- | --- |
| COc1cc(N=Nc2ccccc2)cc(/C=N/NC(N)=S)c1O | inactive |  |  |
| NC(=S)N/N=C/c1ccc(O)cn1 |  | > 661 | 1.12 |
| Cc1ccc(S(=O)(=O)OC2C(C)OCOC3COCOC32)cc1 (stereo unspecified) |  | > 145 | > 145 |
| O=C(OCCN1CCCC1)c1cc2ccccc2n1Cc1ccccc1 |  | > 200 | 36.3 |
| S=c1n(-c2ccc(Cl)cc2)c2nc3ccccc3nc(/c2=N\Nc2ccccc2)n1-c1ccc(Br)cc1 |  | > 61.7 | 31.6 |
| O=C(Nc1ccc(/C=C\c2ccc(NC(=O)c3cc(S(=O)(=O)O)ccc3O)cc2S(=O)(=O)O)c(S(=O)(=O)O)c1)c1cc(S(=O)(=O)O)ccc1O |  | 70.8 | > 100 |
| Cn1c(C(O)C2(c3cccnc3)SCCCS2)cc2ccccc21 (stereo unspecified) |  | > 200 | 75.9 |
| O=C1CCCCC1C1(O)C(=O)Nc2cc(F)ccc21 (stereo unspecified) |  | > 955 | 178 |
| CC(C)C(=O)NCC[C@@H](CNC(=O)OC(C)(C)C)NC(=O)OC(C)(C)C |  | > 200 | > 200 |
| Cc1ccccc1Nc1ccc([N+](=O)[O-])c2nonc12 |  | > 83.2 | 33.1 |
| CCO/C=C(\C(=O)OC)S(=O)(=O)c1ccc(C)cc1 |  | > 200 | > 200 |
| CCC[CH2][Sn]([CH2]CCC)([O]C(=O)c1cc(F)cc(F)c1)[O][Sn]([CH2]CCC)([CH2]CCC)[O]C(=O)c1cc(F)cc(F)c1 |  | > 9.12 | 1.78 |
| Cc1nc2ccc(Cl)cc2c2c1CCN2c1ccc(F)cc1 |  | > 200 | 11.5 |
| COC(=O)C1(C(=O)OC)N=C(C)OC1c1ccccn1 (stereo unspecified) |  | > 200 | > 200 |
| N#Cc1cc2c(n(NS(=O)(=O)c3ccccc3)c1=O)CCC2 |  | > 200 | > 200 |
| CCCCCCCCCCCC1=C(O)C(=O)C(CC2=C(O)C(=O)C(CCCCCCCCCCC)=C(O)C2=O)=C(O)C1=O |  | > 20 | > 20 |
| c1ccc2c(c1)c1ccccc1c1nccnc21 |  | > 200 | 69.2 |
| O=C(NCCS(=O)(=O)N1C(=O)C2CCCN2C(=O)[C@@H]1Cc1ccccc1)OCc1ccccc1 (stereo partly specified) |  | > 100 | 53.7 |
| CCCCS(=O)(=O)c1ccc(O)c(C(=O)Nc2cccc(C(F)(F)F)c2)c1 |  | > 170 | 1.91 |
| O=c1/c(=N\O)c(=O)c2ccccc2/c1=N\O |  | > 200 | 10 |
| C=CCCCCCCCCCC(C(=O)O)C(=O)O |  | > 977 | 550 |
| COC1=C(c2c[nH]c3ccc(CC=C(C)C)cc23)C(=O)C(OC)=C(c2c[nH]c3ccc(CC=C(C)C)cc23)C1=O |  | > 38.9 | 2.24 |

| SMILES | outcome | EC50 [µM] | IC50 [µM] |
| --- | --- | --- | --- |
| O=c1[nH]c2ccccc2nc1/C=C/n1c(=S)[nH]c2ccccc21 |  | > 200 | > 200 |
| CC1OC(OC23C(=O)CC(C)(O)CC2(O)C=CC2=C3C(=O)c3ccc(C4CC(OC5CCC(OC6CC(O)C(O)C(C)O6)C(C)O5)C(O)C(C)O4)c(O)c3C2=O)CCC1O (stereo unspecified) |  | > 295 | 4.9 |
| COc1ccc(C2=Nn3c(nc4sc(-c5ccccc5)cc4c3=O)SC2)cc1 |  | > 200 | > 200 |
| COc1ccc2cc(C(=O)NCCc3ccccc3)ccc2c1OC |  | > 200 | > 200 |
| CC(=O)N1C(Nc2ccccc2)CCN1c1ccccc1 (stereo unspecified) |  | > 200 | 11.2 |
| CNc1nc(N)c(N=O)c(Nc2ccc(Br)cc2)n1 |  | > 200 | 170 |
| CC(CCC(=O)O)[C@H]1CCC2[C@H]3C(CC(=O)[C@@]21C)[C@@]1(C)CCC(O)C[C@H]1C[C@@H]3O (stereo partly specified) |  | > 200 | > 200 |
| C/C1=C\[C@@H](O)C(=O)/C=C/C=C\c2csc(n2)[C@@H](C)NC(=O)C[C@@]2(CC1)S(=O)SC(=O)[C@]2(C)O (stereo partly specified) |  | > 1.32 | 0.0055 |
| Nc1snc2ncccc12 |  | > 1200 | 66.1 |
| O=C1CC(CC(O)C(O)CO)CC(=O)N1 (stereo unspecified) |  | > 200 | > 200 |
| Nc1ncnc2sc(Nc3ccccc3)nc12 |  | > 53.7 | 33.1 |
| CC1(C)N=C(C(N)=O)c2ncn(Cc3ccccc3)c2N1 |  | > 200 | > 200 |
| COC1=C(Br)C(=O)c2nc(C)ccc2C1=O | inactive |  |  |
| Nc1c(N=Nc2ccc(-c3ccc(N=Nc4cc(S(=O)(=O)O)c5ccccc5c4O)cc3)cc2)cc(S(=O)(=O)O)c2ccccc12 |  | 9.12 | > 100 |
| COC(=O)[C@H](Cc1ccccc1)NC(=O)N(CCNC(=O)OC(C)(C)C)c1ccccc1 |  | > 200 | 102 |
| COc1cc[c]([Sb]([Br])([CH]=C(C)C)([CH]=C(C)C)[CH]=C(C)C)cc1 |  | > 380 | 3.02 |
| CCCCON1C[C@@H](O)C(O)[C@@H](O)C1 (stereo partly specified) |  | > 200 | > 200 |
| CCOC(COc1c2occc2cc2ccc(=O)oc12)OCC |  | > 141 | 51.3 |
| Cn1c(=O)c2c(-c3ccccc3)onc2n(C)c1=O |  | > 200 | 11 |
| CC(C)COC(=O)N1N=NC2C3OC(CC3=O)C21 (stereo unspecified) |  | > 977 | > 977 |
| CC(=O)N1C(=O)C2(NCCCN2)c2ccccc21 |  | > 40.7 | > 40.7 |
| COc1ccc(C=C(Cl)Cl)cc1OC |  | > 200 | > 200 |

| SMILES | outcome | EC50 [µM] | IC50 [µM] |
| --- | --- | --- | --- |
| Cc1ccc(S(=O)(=O)NC2C(=O)c3ccccc3C(=O)C2n2ccnc2)cc1 (stereo unspecified) |  | > 200 | 87.1 |
| O=C(c1ccccc1)C(Nc1nc2nc(-c3ccccc3)c(-c3ccccc3)n2[nH]1)c1ccccc1 (stereo unspecified) |  | > 200 | 27.5 |
| O=[N+]([O-])c1ccc2c3c(cccc13)S(=O)(=O)O2 |  | > 200 | 85.1 |
| COc1cc(C2c3cc4c(cc3OC(N3CCOCC3)C2C)OCO4)cc(OC)c1O (stereo unspecified) |  | > 200 | 8.51 |
| Cc1ccccc1NC(=O)C(=O)CC(=O)c1c(C)n([O-])c2ccccc2[n+]1=O |  | > 3.8 | > 3.8 |
| CCCCCCCCCCCCNC(=O)c1ccccc1[Se][Se]c1ccccc1C(=O)NCCCCCCCCCCCC |  | > 3.55 | > 3.55 |
| COc1cc(/C=C2\SC(=S)N(/C=C3\C(=O)C=C(C)OC3=O)C2=O)cc(OC)c1OC |  | > 200 | 18.2 |
| C=C(O)c1ccccc1C#Cc1ccccc1C(=O)OC |  | > 200 | > 100 |
| Cc1ccc(S(=O)(=O)CNC(=S)CCCC(=S)NCS(=O)(=O)c2ccc(C)cc2)cc1 | inactive |  |  |
| N#Cc1ccc(/C=C2\Cc3ccccc3C2=O)cc1 |  | > 200 | > 200 |
| CN(C)C=NCc1ccc2c(c1)OCO2 |  | 51.3 | 479 |
| O=C(O)C1CC(c2ccc(F)cc2)=Nc2ccc(F)cc2S1 (stereo unspecified) |  | > 200 | > 200 |
| CC1=CCC2(C#N)CCC1C2O (stereo unspecified) |  | > 1510 | > 1510 |
| C[C@]12CCC3[C@@H](CC[C@@H]4c5nonc5CC[C@]34C)C1C/C(=N/O)C2=O (stereo partly specified) |  | > 105 | 95.5 |
| CC(=O)NC(CSSCC(NC(C)=O)C(=O)O)C(=O)O (stereo unspecified) |  | > 776 | > 776 |
| O=C(NC(=O)c1ccccc1[N+](=O)[O-])Nc1ccc(Oc2ncc(Cl)cn2)c([N+](=O)[O-])c1 | inactive |  |  |
| COc1ccc(N=NC(=O)NC(CC(C)C)C(=O)NC(C)C(=O)O)cc1 (stereo unspecified) |  | > 200 | 2.82 |
| CCOC(=O)NC(=O)c1cn(CCNCCO)c(=O)[nH]c1=O | inactive |  |  |
| COc1cc([N+](=O)[O-])c(OC)c2c(=O)[nH]c(=O)[nH]c12 |  | > 47.9 | > 47.9 |
| CC(=O)O[C@H]1CC[C@@]2(C)[C@H](CC[C@@H]3[C@@H]2CC[C@]2(C)[C@@H]4[C@H](C[C@@H]32)O[C@]2(CC[C@@H](C)CO2)[C@H]4C)C1 |  | > 200 | > 200 |
| O=C(NCCCNCCNC(=O)c1cc(-c2ccccc2)nc2ccccc12)c1cc(-c2ccccc2)nc2ccccc12 |  | > 20 | 3.02 |
| CC(=O)OCC(OC(C)=O)C(OC(C)=O)C(C=NN(C(C)=O)S(=O)(=O)c1ccc(/C=C2\NC(=O)NC2=O)cc1)OC(C)=O (stereo unspecified) |  | > 200 | 97.7 |

| SMILES | outcome | EC50 [µM] | IC50 [µM] |
| --- | --- | --- | --- |
| CC(C)CCC(=O)c1ccoc1 |  | > 1510 | > 1510 |
| Cc1nn(C(=O)c2ccncc2)c2c1C(c1ccc(Cl)cc1)SC(N)=N2 (stereo unspecified) |  | > 200 | 30.9 |
| COc1ccc(NC(=O)CC(=O)n2nc(C)c(N=Nc3cccc(C)c3)c2C)cc1 |  | > 200 | > 200 |
| [B-]1n2ccc[n+]2[B-]n2ccc[n+]21 |  | > 200 | > 200 |
| O=C1OC[C@@H]2CCCN2Cc2ccccc21 |  | > 87.1 | > 87.1 |
| COc1cc2ccc1OCc1cccc(n1)COc1ccc(cc1OC)C=NCCNCCN=C2 |  | 132 | > 200 |
| O=C1OCC2C1C1c3ccccc3C(O)c3ccccc3C21 (stereo unspecified) | inactive |  |  |
| Cn1c2ccccc2c2nnc(-n3nc(-c4ccc(Br)cc4)cc3N)nc21 |  | > 200 | > 200 |
| COC(=O)c1ccc(/C=C2\Cc3ccccc3C2=O)cc1 |  | > 200 | > 200 |
| COC(=O)c1ccc(OCc2ccc3nc(OC)c(OC)nc3c2)cc1 |  | > 4.07 | > 4.07 |
| CCOC(=O)c1ccc(-c2cccs2)n1C |  | > 200 | 97.7 |
| OC(c1cc2ccccc2[nH]1)C(O)(c1cc2ccccc2[nH]1)c1cc2ccccc2[nH]1 (stereo unspecified) |  | > 12.9 | 11 |
| CNC(=O)[C@@H](C)C1C(=O)/C(=C(O)\C=C\C(C)C)C(=O)N1C1CCC(O)C(C)O1 (stereo partly specified) | inactive |  |  |
| COc1cc2c3c(c1OC)C(=O)C(=O)C1=C3N(CCC1)CC2 | inactive |  |  |
| CSc1nc(C)c(CCCl)c(Cl)n1 | inactive |  |  |
| CCCCCCCCCCC#CCC(=O)SCCNC(=O)CCNC(=O)[C@@H](O)C(C)(C)COP(=O)(O)OP(=O)(O)OCC1OC(n2cnc3c(N)ncnc32)C(O)C1OP(=O)(O)O (stereo partly specified) | inactive |  |  |
| Cc1cccc(C(C)C)c1N1C(=O)C(=O)C(c2nc3ccccc3o2)C(=O)C1=O |  | > 13.5 | > 13.5 |
| On1c(-c2ccccc2)c(-c2c(-c3ccccc3)n(O)c3ccccc23)c2ccccc21 |  | > 316 | 132 |
| O=C(N/N=C1\C(=O)N(c2nccs2)C(=O)C(=O)C1c1nc2ccccc2s1)c1ccccc1O (stereo unspecified) | inactive |  |  |
| CCn1c(=O)c2ncnnc2n(CC)c1=O |  | > 200 | > 200 |
